Experimental data taken from patent US20180002288A1, “USE OF PICOLINAMIDES AS FUNGICIDES” (DOW AGROSCIENCES LLC, priority 2014, published 2018).
Read-outs that look alike come from different tables or passages of the source.

Tests used:
Puccinia triticina = experiment: Wheat Brown Rust fungicidal activity (PUCCRT); format: in vivo; conditions: for pest or weed control at 121.5 g/ha: Low Volume Cereal Activity at 121.5 g/Ha; for pest or weed control at 100 ppm: wheat, high volume
Zymoseptoria tritici = experiment: Leaf Blotch of Wheat fungicidal activity (SEPTTR); format: in vivo; conditions: for pest or weed control at 121.5 g/ha: Low Volume Cereal Activity at 121.5 g/Ha; for pest or weed control at 100 ppm: wheat, high volume
Phakopsora pachyrhizi = experiment: Asian Soybean Rust fungicidal activity (PHAKPA); conditions: Phakopsora pachyrhizi, in Glycine max
[1] = 24 h, 1 Day Protectant, read-out: PUCCRT 1DP (Wheat Brown Rust, 1 Day Protectant)
[2] = 72 h, 3 Day Curative, read-out: PUCCRT 3DC (Wheat Brown Rust, 3 Day Curative)
[3] = 24 h, 1 Day Protectant, read-out: SEPTTR 1DP (Wheat Leaf Blotch, 1 Day Protectant)
[4] = 72 h, 3 Day Curative, read-out: SEPTTR 3DC (Wheat Leaf Blotch, 3 Day Curative)
[5] = 24 h, read-out: PHAKPA 1DP % Control rating, soybean, high volume, 25 ppm, 1 Day Protectant
[6] = 72 h, read-out: PHAKPA 3DC % Control rating, soybean, high volume, 25 ppm, 3 Day Curative
[7] = 24 h, 1 Day Protectant, read-out: PUCCRT 1DP % Control rating
[8] = 72 h, 3 Day Curative, read-out: PUCCRT 3DC % Control rating
[9] = 24 h, 1 Day Protectant, read-out: SEPTTR 1DP % Control rating
[10] = 72 h, 3 Day Curative, read-out: SEPTTR 3DC % Control rating

Compound | pest or weed control at 121.5 g/ha (Puccinia triticina; [1]) | pest or weed control at 121.5 g/ha (Puccinia triticina; [2]) | pest or weed control at 121.5 g/ha (Zymoseptoria tritici; [3]) | pest or weed control at 121.5 g/ha (Zymoseptoria tritici; [4]) | pest or weed control at 25 ppm (Phakopsora pachyrhizi; [5]) | pest or weed control at 25 ppm (Phakopsora pachyrhizi; [6]) | pest or weed control at 100 ppm (Puccinia triticina; [7]) | pest or weed control at 100 ppm (Puccinia triticina; [8]) | pest or weed control at 100 ppm (Zymoseptoria tritici; [9]) | pest or weed control at 100 ppm (Zymoseptoria tritici; [10])
COc1ccnc(C(=O)N[C@@H](C)C(=O)O[C@@H](C)[C@H](OCC(C)C)c2ccccc2)c1OC(C)=O [Example 225] | > 80% | > 80% | < 80% | > 80% | > 80% | < 80% |  |  |  | 
COc1ccnc(C(=O)N[C@@H](C)C(=O)O[C@@H](C)[C@H](Oc2ccccc2)c2cccc3ccccc23)c1OCOC(C)=O [Example 262] | > 80% | > 80% | > 80% | > 80% | > 80% | < 0% |  |  |  | 
COc1cc(F)ccc1[C@@H](OC(=O)C1CC1)[C@H](C)OC(=O)[C@H](C)NC(=O)c1nccc(OC)c1OC(C)=O [Example 297] | < 0% | < 0% | < 0% | < 80% | < 80% | < 80% |  |  |  | 
COc1ccnc(C(=O)N[C@@H](C)C(=O)O[C@@H](C)[C@H](Oc2ccccc2)c2ccccc2)c1OC(C)=O [Example 184] | > 80% | > 80% | > 80% | > 80% | < 80% | < 80% |  |  |  | 
COc1ccnc(C(=O)N[C@@H](C)C(=O)O[C@@H](C)[C@H](Oc2ccccc2)c2ccc(F)cc2OC(C)=O)c1OC(C)=O [Example 267] | < 80% | < 0% | > 80% | < 80% | < 80% | < 80% |  |  |  | 
COc1ccnc(C(=O)N[C@@H](C)C(=O)O[C@@H](C)[C@@H](Oc2ccccc2)c2cccs2)c1O [Example 129] |  |  |  |  |  |  | < 80% | < 80% | > 80% | < 80%
COc1ccnc(C(=O)N[C@@H](C)C(=O)O[C@@H](C)[C@@H](Oc2ccccc2)c2ccccc2)c1OCOC(C)=O [Example 219] | > 80% | > 80% | > 80% | > 80% |  |  |  |  |  | 
COc1ccnc(C(=O)N[C@@H](C)C(=O)O[C@@H](C)[C@H](OCC2CC2)c2ccc(-c3ccccc3)cc2)c1OCOC(C)=O [Example 234] | > 80% | < 80% | > 80% | > 80% |  |  |  |  |  | 
COc1ccnc(C(=O)N[C@@H](C)C(=O)O[C@@H](C)[C@H](Oc2ccc(F)cc2)c2ccccc2)c1O [Example 146] |  |  |  |  |  |  | > 80% | > 80% | > 80% | > 80%
COc1ccnc(C(=O)N[C@@H](C)C(=O)O[C@@H](C)[C@H](Oc2ccc(Cl)cc2Cl)c2ccccc2)c1OCOC(C)=O [Example 199] | > 80% | < 80% | > 80% | > 80% |  |  |  |  |  | 
COc1ccnc(C(=O)N[C@@H](C)C(=O)O[C@@H](C)[C@H](Oc2ccccc2)c2ccc(C)cc2F)c1O [Example 164] |  |  |  |  |  |  | > 80% | > 80% | > 80% | > 80%
COc1ccnc(C(=O)N[C@@H](C)C(=O)O[C@@H](C)[C@H](OCC2CC2)c2cccc(-c3ccccc3)c2)c1OC(C)=O [Example 222] | > 80% | > 80% | > 80% | > 80% |  |  |  |  |  | 
COc1ccnc(C(=O)N[C@H](C(=O)O[C@@H](C)[C@H](Oc2ccc(C(F)(F)F)cc2)c2ccccc2)C(C)C)c1OC(C)=O [Example 198] | > 80% | < 80% | > 80% | < 0% |  |  |  |  |  | 
COc1ccnc(C(=O)N[C@@H](C)C(=O)O[C@@H](C)[C@H](Oc2ccc(Cl)cc2)c2ccccc2)c1O [Example 119] |  |  |  |  |  |  | > 80% | > 80% | < 80% | > 80%
COc1ccnc(C(=O)N[C@@H](C)C(=O)O[C@@H](C)C(Oc2ccc(F)cc2)c2ccc(F)cc2)c1O (some centres unmarked) [Example 147] |  |  |  |  |  |  | > 80% | < 80% | > 80% | > 80%
COc1ccnc(C(=O)N[C@@H](C)C(=O)O[C@@H](C)[C@H](Oc2ccccc2)c2ccc(F)cc2F)c1OC(C)=O [Example 251] | > 80% | > 80% | > 80% | > 80% |  |  |  |  |  | 

Compound | pest or weed control at 121.5 g/ha (Puccinia triticina; [1]) | pest or weed control at 121.5 g/ha (Puccinia triticina; [2]) | pest or weed control at 121.5 g/ha (Zymoseptoria tritici; [3]) | pest or weed control at 121.5 g/ha (Zymoseptoria tritici; [4]) | pest or weed control at 25 ppm (Phakopsora pachyrhizi; [5]) | pest or weed control at 25 ppm (Phakopsora pachyrhizi; [6]) | pest or weed control at 100 ppm (Puccinia triticina; [7]) | pest or weed control at 100 ppm (Puccinia triticina; [8]) | pest or weed control at 100 ppm (Zymoseptoria tritici; [9]) | pest or weed control at 100 ppm (Zymoseptoria tritici; [10])
CCOc1cc(F)ccc1[C@@H](Oc1ccccc1)[C@H](C)OC(=O)[C@H](C)NC(=O)c1nccc(OC)c1O [Example 168] |  |  |  |  |  |  | > 80% | > 80% | > 80% | > 80%
COc1ccnc(C(=O)N[C@@H](C)C(=O)O[C@@H](C)[C@H](OC)c2ccccc2)c1OC(C)=O [Example 231] | < 0% | > 80% | < 0% | > 80% |  |  |  |  |  | 
COc1ccnc(C(=O)N[C@@H](C)C(=O)O[C@@H](C)[C@@H](Oc2ccccc2)c2cccs2)c1OC(C)=O [Example 210] | < 80% | < 80% | < 80% | < 80% |  |  |  |  |  | 
COc1ccnc(C(=O)N[C@@H](C)C(=O)O[C@@H](C)[C@@H](Oc2ccc(Cl)cc2Cl)c2ccccc2)c1O [Example 134] |  |  |  |  |  |  | > 80% | > 80% | > 80% | < 80%
COc1ccnc(C(=O)N[C@@H](C)C(=O)O[C@@H](C)[C@H](Oc2ccc(C)cc2Cl)c2ccccc2)c1O [Example 149] |  |  |  |  |  |  | > 80% | > 80% | > 80% | > 80%
COc1ccnc(C(=O)N[C@@H](C)C(=O)O[C@@H](C)[C@H](Oc2ccc(C)cc2)c2ccccc2)c1OCOC(C)=O [Example 248] | > 80% | > 80% | > 80% | > 80% |  |  |  |  |  | 
COc1ccnc(C(=O)N[C@@H](C)C(=O)O[C@@H](C)[C@@H](OCC(C)C)c2ccccc2)c1O [Example 136] |  |  |  |  |  |  | < 0% | < 80% | < 80% | < 0%
CC[C@H](NC(=O)c1nccc(OC)c1O)C(=O)O[C@@H](C)[C@H](Oc1cc(F)cc(Cl)c1)c1ccccc1 [Example 124] |  |  |  |  |  |  | > 80% | > 80% | > 80% | > 80%
COc1ccnc(C(=O)N[C@@H](C)C(=O)O[C@@H](C)[C@@H](OCC(C)C)c2ccccc2)c1OCOC(C)=O [Example 226] | > 80% | > 80% | < 80% | < 80% |  |  |  |  |  | 
COc1cc(F)ccc1[C@@H](OC(=O)C1CC1)[C@H](C)OC(=O)[C@H](C)NC(=O)c1nccc(OC)c1O [Example 291] |  |  |  |  |  |  | < 80% | < 80% | < 0% | > 80%
COc1ccnc(C(=O)N[C@@H](C)C(=O)O[C@@H](C)[C@H](Oc2cccc(F)c2)c2cccc(-c3ccccc3)c2)c1O [Example 133] |  |  |  |  |  |  | < 80% | < 0% | < 0% | < 0%
COc1ccnc(C(=O)N[C@@H](C)C(=O)O[C@@H](C)[C@H](Oc2ccc(C)cc2)c2ccc(C)cc2)c1OCOC(C)=O [Example 257] | > 80% | > 80% | > 80% | > 80% |  |  |  |  |  | 
COc1ccnc(C(=O)N[C@@H](C)C(=O)O[C@@H](C)[C@H](Oc2ccccc2)c2ccc(-c3ccccc3)cc2)c1O [Example 144] |  |  |  |  |  |  | > 80% | < 80% | > 80% | < 80%
COc1ccnc(C(=O)N[C@@H](C)C(=O)O[C@@H](C)[C@@H](Oc2ccccc2)c2ccccc2)c1OC(=O)C(C)C [Example 218] | < 0% | < 0% | > 80% | < 80% |  |  |  |  |  | 
COc1ccnc(C(=O)N[C@@H](C)C(=O)O[C@@H](C)[C@@H](OCC(C)C)c2ccccc2)c1OC(C)=O [Example 224] | > 80% | > 80% | < 80% | < 80% |  |  |  |  |  | 
